Test results taken from ChEMBL document CHEMBL1157738, “Simocyclinone D8 turns on against Gram-negative bacteria in a clinical setting” (2010).
In brackets after ≈: the same amount, converted by molar mass.

What was measured:
[1] = system: Escherichia coli; assay: Antibacterial activity against Escherichia coli isolate 47 expressing qnr B19 gene after 24 hrs by twofold serial dilution method; type: functional
[2] = system: Klebsiella pneumoniae; assay: Antibacterial activity against Klebsiella pneumoniae isolate 173 assessed as residual bacterial survival at 50 mg/L after 24 hrs by twofold serial dilution method; type: functional; conditions: isolate 173, 24 h
[3] = system: Escherichia coli; assay: Antibacterial activity against Escherichia coli XL-1Blue after 24 hrs by twofold serial dilution method; type: functional
[4] = system: Escherichia coli; assay: Antibacterial activity against Escherichia coli isolate 24 assessed as residual bacterial survival at 50 mg/L after 24 hrs by twofold serial dilution method; type: functional; conditions: isolate 24, 24 h
[5] = system: Escherichia coli; assay: Antibacterial activity against Escherichia coli isolate 85 expressing GyrA S83L mutant assessed as residual bacterial survival at 50 mg/L after 24 hrs by twofold serial dilution method; type: functional; conditions: isolate 85, 24 h
[6] = system: Klebsiella pneumoniae; assay: Antibacterial activity against Klebsiella pneumoniae isolate 92 assessed as drug uptake relative to total amount drug treated; type: functional, organism-based
[7] = system: Klebsiella pneumoniae; assay: Antibacterial activity against Klebsiella pneumoniae isolate 134 after 24 hrs by twofold serial dilution method; type: functional
[8] = system: Escherichia coli; assay: Antibacterial activity against Escherichia coli isolate 95 expressing GyrA S83L mutant assessed as residual bacterial survival at 50 mg/L after 24 hrs by twofold serial dilution method; type: functional; conditions: isolate 95, 24 h
[9] = system: Escherichia coli; assay: Antibacterial activity against Escherichia coli JM109 after 24 hrs by twofold serial dilution method; type: functional
[10] = system: Escherichia coli; assay: Antibacterial activity against Escherichia coli Top10 after 24 hrs by twofold serial dilution method; type: functional
[11] = system: Klebsiella pneumoniae; assay: Antibacterial activity against Klebsiella pneumoniae isolate 5 expressing qnr B19 gene, GyrA D87G mutant assessed as residual bacterial survival at 50 mg/L after 24 hrs by twofold serial dilution method; type: functional; conditions: isolate 5, 24 h
[12] = system: Klebsiella pneumoniae; assay: Antibacterial activity against Klebsiella pneumoniae isolate 172 expressing qnr B19 gene, GyrA D87G mutant assessed as residual bacterial survival at 50 mg/L after 24 hrs by twofold serial dilution method; type: functional; conditions: isolate 172, 24 h
[13] = system: Escherichia coli; assay: Antibacterial activity against Escherichia coli HB101 after 24 hrs by twofold serial dilution method; type: functional
[14] = system: Klebsiella pneumoniae; assay: Antibacterial activity against Klebsiella pneumoniae isolate 204 expressing qnr B19 gene assessed as residual bacterial survival at 50 mg/L after 24 hrs by twofold serial dilution method; type: functional; conditions: isolate 204, 24 h
[15] = system: Klebsiella pneumoniae; assay: Antibacterial activity against Klebsiella pneumoniae isolate 97 expressing qnr B19 gene assessed as residual bacterial survival at 50 mg/L after 24 hrs by twofold serial dilution method; type: functional; conditions: isolate 97, 24 h
[16] = system: Escherichia coli; assay: Antibacterial activity against Escherichia coli isolate 50 assessed as drug uptake; type: functional, organism-based
[17] = system: Escherichia coli; assay: Antibacterial activity against Escherichia coli JM110 after 24 hrs by twofold serial dilution method; type: functional
[18] = system: Escherichia coli; assay: Antibacterial activity against Escherichia coli isolate 191 expressing qnr S1 gene assessed as residual bacterial survival at 50 mg/L after 24 hrs by twofold serial dilution method; type: functional; conditions: isolate 191, 24 h
[19] = system: Staphylococcus aureus; assay: Antibacterial activity against Staphylococcus aureus after 24 hrs by twofold serial dilution method; type: functional
[20] = system: Escherichia coli; assay: Antibacterial activity against Escherichia coli isolate 9 expressing qnr B19 gene, GyrA D87G mutant assessed as residual bacterial survival at 50 mg/L after 24 hrs by twofold serial dilution method; type: functional; conditions: isolate 9, 24 h
[21] = system: Klebsiella pneumoniae; assay: Antibacterial activity against Klebsiella pneumoniae isolate 204 expressing qnr B19 gene after 24 hrs by twofold serial dilution method; type: functional
[22] = system: Escherichia coli; assay: Antibacterial activity against Escherichia coli HB101 assessed as residual bacterial survival at 50 mg/L after 24 hrs by twofold serial dilution method; type: functional; conditions: HB101, 24 h
[23] = system: Staphylococcus aureus; assay: Antibacterial activity against Staphylococcus aureus assessed as residual bacterial survival at 50 mg/L after 24 hrs by twofold serial dilution method; type: functional
[24] = system: Escherichia coli; assay: Antibacterial activity against Escherichia coli isolate 21 assessed as residual bacterial survival at 50 mg/L after 24 hrs by twofold serial dilution method; type: functional; conditions: isolate 21, 24 h
[25] = system: Klebsiella pneumoniae; assay: Antimicrobial activity against Klebsiella pneumoniae isolate 92 assessed as drug uptake; type: functional, organism-based
[26] = system: Klebsiella pneumoniae; assay: Antibacterial activity against Klebsiella pneumoniae isolate 91 assessed as residual bacterial survival at 50 mg/L after 24 hrs by twofold serial dilution method; type: functional; conditions: isolate 91, 24 h
[27] = system: Escherichia coli; assay: Antibacterial activity against Escherichia coli isolate 47 expressing qnr B19 gene assessed as residual bacterial survival at 50 mg/L after 24 hrs by twofold serial dilution method; type: functional; conditions: isolate 47, 24 h
[28] = system: Klebsiella pneumoniae; assay: Antibacterial activity against Klebsiella pneumoniae isolate 173 after 24 hrs by twofold serial dilution method; type: functional
[29] = system: Klebsiella pneumoniae; assay: Antibacterial activity against Klebsiella pneumoniae isolate 92 after 24 hrs by twofold serial dilution method; type: functional
[30] = system: Escherichia coli; assay: Antibacterial activity against Escherichia coli isolate 50 expressing qnr B19 gene after 24 hrs by twofold serial dilution method; type: functional
[31] = system: Escherichia coli; assay: Antibacterial activity against Escherichia coli isolate 32 assessed as residual bacterial survival at 50 mg/L after 24 hrs by twofold serial dilution method; type: functional; conditions: isolate 32, 24 h

For `CC(=O)O[C@@H]1[C@@H](C)O[C@@H](c2ccc3c(c2O)[C@@H](O)[C@]24O[C@@]2(C3=O)[C@@]2(O)C(=O)C=C(C)C[C@@]2(O)C[C@@H]4O)C[C@H]1OC(=O)/C=C/C=C/C=C/C=C/C(=O)Nc1c(O)c2ccc(O)c(Cl)c2oc1=O` [SIMOCYCLINONE D8], the MIC50 [1] was 12 µg/mL (≈ 12.9 µM), the survival at 50 µg/mL [2] was 83% and the MIC50 [3] was > 100 µg/mL. For the same compound, the survival at 50 µg/mL [4] was 21%, the survival at 50 µg/mL [5] was > 90% and the Drug uptake [6] was 1.96%. For the same compound, the MIC50 [7] was 25 µg/mL (≈ 26.8 µM), the survival at 50 µg/mL [8] was > 90% and the MIC50 [9] was > 100 µg/mL. The MIC50 [10] was > 100 µg/mL, the survival at 50 µg/mL [11] was > 90% and the survival at 50 µg/mL [12] was > 90%. The MIC50 [13] was > 100 µg/mL, the survival at 50 µg/mL [14] was > 90% and the survival at 50 µg/mL [15] was 68%. For the same compound, the Drug uptake [16] was 180 pmol, the MIC50 [17] was > 100 µg/mL and the survival at 50 µg/mL [18] was 56%. The MIC50 [19] was 50 µg/mL (≈ 53.6 µM), the survival at 50 µg/mL [20] was > 90% and the MIC50 [21] was >100%. The survival at 50 µg/mL [22] was > 90%, the survival at 50 µg/mL [23] was 66% and the survival at 50 µg/mL [24] was > 90%. The Drug uptake [25] was 60 pmol, the survival at 50 µg/mL [26] was > 90% and the survival at 50 µg/mL [27] was 44%. For the same compound, the MIC50 [28] was 100 µg/mL (≈ 107 µM), the MIC50 [29] was 50 µg/mL (≈ 53.6 µM) and the MIC50 [30] was 12 µg/mL (≈ 12.9 µM). The survival at 50 µg/mL [31] was > 90%.
